In paper PMC3873810, “Structure–Activity Relationship of Adenosine 5′-diphosphoribose at the Transient Receptor Potential Melastatin 2 (TRPM2) Channel: Rational Design of Antagonists” (Journal of Medicinal Chemistry, 2013):
Entries after “also recorded” stand apart in the source; their conditions may differ. Where two headings read alike, the source gives them in different places. One block for each compound: values may come before it.

Experiments:
human TRPM2 = target: T1, human TRPM2 (Homo sapiens, UniProt O94759); assay: Whole-cell patch clamp, antagonism of TRPM2 activation by 100 μM ADPR in HEK293 clone TRPM2#24; assay type: cell-based; conditions: for Antagonist activity at TRPM2, in words: analogue concentration not printed in the sentence (most analogues tested at 900 μM); for Mean outward current of 100 μM ADPR (1) infusion: mean ± SEM
T1 construct: Specific bands of full length TRPM2 (black arrow) and degradation products (gray arrows) are marked; expressed in transfected cells
T1 sequence (O94759 whole entry, the tested form may be a part): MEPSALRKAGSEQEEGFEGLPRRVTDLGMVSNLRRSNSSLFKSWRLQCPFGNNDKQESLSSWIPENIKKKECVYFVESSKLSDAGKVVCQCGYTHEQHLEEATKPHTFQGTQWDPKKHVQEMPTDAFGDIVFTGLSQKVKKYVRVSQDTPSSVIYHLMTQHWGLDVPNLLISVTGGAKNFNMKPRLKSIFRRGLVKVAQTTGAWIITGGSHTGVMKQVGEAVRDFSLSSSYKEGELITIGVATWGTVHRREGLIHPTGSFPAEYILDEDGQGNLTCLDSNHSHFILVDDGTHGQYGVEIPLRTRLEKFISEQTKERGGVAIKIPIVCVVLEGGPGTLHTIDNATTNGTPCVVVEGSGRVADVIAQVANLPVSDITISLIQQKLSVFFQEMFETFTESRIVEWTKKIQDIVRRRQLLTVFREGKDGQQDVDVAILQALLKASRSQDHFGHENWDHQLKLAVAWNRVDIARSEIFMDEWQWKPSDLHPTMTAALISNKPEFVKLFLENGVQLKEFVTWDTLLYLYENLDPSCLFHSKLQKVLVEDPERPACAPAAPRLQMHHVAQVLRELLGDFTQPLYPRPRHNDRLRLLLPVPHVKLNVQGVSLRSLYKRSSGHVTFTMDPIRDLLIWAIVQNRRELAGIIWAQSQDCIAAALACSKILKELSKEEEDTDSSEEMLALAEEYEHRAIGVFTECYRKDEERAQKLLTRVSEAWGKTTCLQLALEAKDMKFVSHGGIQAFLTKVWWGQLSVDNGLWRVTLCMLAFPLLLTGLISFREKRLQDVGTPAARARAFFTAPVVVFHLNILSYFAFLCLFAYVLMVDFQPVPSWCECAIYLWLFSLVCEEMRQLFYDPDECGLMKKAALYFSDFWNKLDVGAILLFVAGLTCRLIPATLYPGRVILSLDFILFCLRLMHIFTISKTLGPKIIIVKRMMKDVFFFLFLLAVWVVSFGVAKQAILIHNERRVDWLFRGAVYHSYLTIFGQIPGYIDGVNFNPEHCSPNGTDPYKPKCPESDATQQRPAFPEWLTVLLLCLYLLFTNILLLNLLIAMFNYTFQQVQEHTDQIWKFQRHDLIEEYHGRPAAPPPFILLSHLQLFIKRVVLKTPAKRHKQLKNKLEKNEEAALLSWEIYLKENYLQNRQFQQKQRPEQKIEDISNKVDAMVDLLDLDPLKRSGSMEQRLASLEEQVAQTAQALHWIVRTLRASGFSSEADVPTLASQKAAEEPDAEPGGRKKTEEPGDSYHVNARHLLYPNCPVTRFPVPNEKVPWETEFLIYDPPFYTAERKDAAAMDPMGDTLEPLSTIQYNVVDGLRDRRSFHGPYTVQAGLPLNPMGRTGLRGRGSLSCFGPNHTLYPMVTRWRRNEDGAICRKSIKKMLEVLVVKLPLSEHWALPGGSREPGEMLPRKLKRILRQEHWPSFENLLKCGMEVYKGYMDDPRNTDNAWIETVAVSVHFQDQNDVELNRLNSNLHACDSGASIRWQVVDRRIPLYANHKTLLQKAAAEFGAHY

TRPM2 channel = conditions: read-out: TRPM2 inhibition IC50; cited from earlier work
TRPM2 = tested on: TRPM2; set-up: method as in PMID 20650899; conditions: even at 60-fold excess of 88 over 1; cited from earlier work
murine neutrophils = tested on: murine neutrophils; set-up: method as in PMID 18025229; conditions: cited from earlier work
human neutrophils = assay: Chemotaxis (migration) of primary human neutrophils in fMLP gradient, μ-Slide Chemotaxis; assay type: cell-based; conditions: 50 nM fMLP gradient; fMLP alone, or with 1.5 mM EGTA, or with 100 μM 8-Ph-ADPR (5); 1 h tracking
[1] = against 100 μM ADPR (1) in pipet solution, outward current at +15 mV, HEK293 clone TRPM2#24, read-out: Antagonism at TRPM2 (IC50)
[2] = analogue 100 μM, equimolar to 100 μM ADPR in pipet solution
[3] = analogue 900 μM with 100 μM ADPR in pipet solution
[4] = footnote d: could only be tested at 100 μM due to solubility difficulties, 100 μM ADPR, 0.1% DMSO, read-out: Antagonism at TRPM2 (IC50), result as symbol
[5] = analogue tested at 900 μM against 100 μM ADPR, footnote c: antagonistic effect observed but not statistically significant, read-out: Antagonism at TRPM2 (IC50), result as symbol

Compound: Nc1ncnc2c1ncn2[C@H]1C[C@H](O)[C@@H](COP(=O)(O)O)O1 [compound 31, 2′-deoxy-AMP, reference compound]
- Antagonist activity at TRPM2, in words (human TRPM2; 100 μM ADPR): weak antagonist
- IC50 (human TRPM2; [1]): 100 to 900 µM
- Effect on activation of TRPM2 by ADPR (1), in words (human TRPM2; [2]): antagonist effect was lost
- Effect on activation of TRPM2 by ADPR (1), in words (human TRPM2; [3]): suppressed activation of TRPM2

Compound: copper ions
- IC50 (TRPM2 channel): 2.6 µM

Compound: Nc1ncnc2c1ncn2[C@@H]1O[C@H](COP(=O)(O)OP(=O)(O)OC[C@H]2OC(O)[C@H](O)[C@@H]2O)[C@@H](O)[C@H]1O (stereo partly shown) [compound 1, Adenosine 5′-diphosphoribose]
- Mean outward current of 100 μM ADPR (1) infusion (human TRPM2; control of the set of experiments for 4, n = 16): 1.13 ± 0.14 nA
- Mean outward current of 100 μM ADPR (1) infusion (human TRPM2; control of the set of experiments for 5, n = 16): 1.17 ± 0.13 nA
- Mean outward current of 100 μM ADPR (1) infusion (human TRPM2; control of the set of experiments for 6, n = 20): 1.70 ± 0.25 nA
- Mean outward current of 100 μM ADPR (1) infusion (human TRPM2; control of the set of experiments for 7, n = 22): 1.25 ± 0.14 nA
- Mean outward current of 100 μM ADPR (1) infusion (human TRPM2; control of the set of experiments for 84, n = 8): 1.44 ± 0.20 nA
- Mean outward current of 100 μM ADPR (1) infusion (human TRPM2; control of the set of experiments for 86, n = 15): 1.23 ± 0.22 nA

Compound: Nc1ncnc2c1ncn2[C@@H]1O[C@H](COP(=O)(O)OP(=O)(O)O)[C@@H](O)[C@H]1O [compound 44, adenosine 5′-diphosphate, reference compound]
- Antagonist activity at TRPM2, in words (human TRPM2; 100 μM ADPR): inactive

Compound: Nc1nc(F)nc2c1ncn2[C@@H]1O[C@H](COP(=O)(O)OP(=O)(O)OC[C@H]2OC(O)[C@H](O)[C@@H]2O)[C@@H](O)[C@H]1O (stereo partly shown) [compound 16, 2-F-ADPR]
- Antagonist activity at TRPM2, in words (human TRPM2; 100 μM ADPR): did not antagonize activation of TRPM2
- IC50 (human TRPM2; [5]): > 900 µM

Compound: O=c1[nH]cnc2c1ccn2[C@@H]1O[C@H](COP(=O)(O)OP(=O)(O)OC[C@H]2OC(O)[C@H](O)[C@@H]2O)[C@@H](O)[C@H]1O (stereo partly shown) [compound 14, 7-Deaza-IDPR]
- Antagonist activity at TRPM2, in words (human TRPM2; 100 μM ADPR): without significant effect
- IC50 (human TRPM2; [5]): > 900 µM

Compound: Nc1ncnc2c1ncn2[C@@H]1O[C@H](COP(=O)(O)O)[C@@H](O)[C@H]1O [compound 88, adenosine 5′-monophosphate, reference compound]
- Inhibition of ADPR-mediated currents, in words (TRPM2): not shown any inhibition
- Antagonist activity at TRPM2, in words (human TRPM2; 100 μM ADPR): no antagonist activity; also recorded: ineffective

Compound: Nc1ncnc2c1nc(-c1ccc(CC(N)C(=O)O)cc1)n2[C@@H]1O[C@H](COP(=O)(O)O)[C@@H](O)[C@H]1O (stereo partly shown) [compound 9, 8-(4-(2-Aminopropanoic acid)phenyl)adenosine-5′-monophosphate]
- IC50 (human TRPM2; [1]): 100 to 900 µM
- Effect on activation of TRPM2 by ADPR (1), in words (human TRPM2; [2]): antagonist effect was lost
- Effect on activation of TRPM2 by ADPR (1), in words (human TRPM2; [3]): suppressed activation of TRPM2

Compound: Nc1ncnc2c1nc(Br)n2[C@@H]1O[C@H](COP(=O)(O)OP(=O)(O)OC[C@H]2OC(O)[C@H](O)[C@@H]2O)[C@@H](O)[C@H]1O (stereo partly shown) [compound 4, 8-Br-ADPR, reference compound]
- Sensitivity of Ca2+ signalling and chemotaxis of murine neutrophils, in words (murine neutrophils): very sensitive
- Effect on activation of TRPM2 by ADPR (1), in words (human TRPM2; [3]): significantly inhibited TRPM2 activation

Compound: O=C(O)CN(CCOCCOCCN(CC(=O)O)CC(=O)O)CC(=O)O [EGTA, reference compound]
- Center of mass ∥ (mean movement in the y direction along fMLP gradient) (human neutrophils): 32.6 μm

Compound: Nc1ncnc2c1nc(Cl)n2[C@@H]1O[C@H](COP(=O)(O)O)[C@@H](O)[C@H]1O [compound 87, 8-Cl-AMP, reference compound]
- Effect on activation of TRPM2 by ADPR (1), in words (human TRPM2; [3]): no antagonist effect
- IC50 (human TRPM2; [5]): > 900 µM

Compound: O=c1[nH]cnc2c1ncn2[C@@H]1O[C@H](COP(=O)(O)OP(=O)(O)OC[C@H]2OC(O)[C@H](O)[C@@H]2O)[C@@H](O)[C@H]1O (stereo partly shown) [compound 13, Inosine-5′-diphosphoribose]
- Antagonist activity at TRPM2, in words (human TRPM2; 100 μM ADPR): did not antagonize activation of TRPM2
- IC50 (human TRPM2; [5]): > 900 µM

Compound: Nc1ncnc2c1ncn2CCCCOP(=O)(O)OP(=O)(O)OC[C@H]1OC(O)[C@H](O)[C@@H]1O (stereo partly shown) [compound 30, 9-(4-Hydroxybutyl)adenine-5′-diphosphoribose]
- Antagonism at TRPM2 (IC50) (human TRPM2; against 100 μM ADPR (1) in pipet solution, outward current at +15 mV, HEK293 clone TRPM2#24): upper micromolar range
- Effect on activation of TRPM2 by ADPR (1), in words (human TRPM2; [2]): no inhibition
- Effect on activation of TRPM2 by ADPR (1), in words (human TRPM2; [3]): nearly complete inhibition

Second part, led by results:

- IC50 (human TRPM2; [4]): > 900 µM
Compound: Nc1ncnc2c1ncn2[C@@H]1O[C@H](CNc2c(NC3CCCC3)c(=O)c2=O)[C@@H](O)[C@H]1O [compound 65, 3-(5′-Amino-5′-deoxyadenosine)-4-(cyclopentylamino)-cyclobut-3-ene-1,2-dione]

- Effect on activation of TRPM2 by ADPR (1), in words (human TRPM2; [3]): completely inhibited activation of TRPM2
Compound: Nc1ncnc2c1nc(-c1ccccc1)n2[C@H]1C[C@H](O)[C@@H](COP(=O)(O)OP(=O)(O)OC[C@H]2OC(O)[C@H](O)[C@@H]2O)O1 (stereo partly shown) [compound 86, 8-Phenyl-2′-deoxyadenosine-5′-diphosphoribose]

- IC50 (human TRPM2; [4]): > 900 µM
Compound: Nc1ncnc2c1ncn2[C@@H]1O[C@H](CNc2c(NC[C@H]3O[C@@H](O)[C@H](O)[C@@H]3O)c(=O)c2=O)[C@@H](O)[C@H]1O [compound 64, 3-(5′-Amino-5′-deoxyadenosine)-4-(5″-amino-5″-deoxy-β-D-ribofuranose)cyclobut-3-ene-1,2-dione]

- IC50 (human TRPM2; [4]): > 900 µM
Compound: Nc1ncnc2c1nc(-c1ccccc1)n2[C@@H]1O[C@H](Cn2cc(COC[C@H]3OC(O)[C@H](O)[C@@H]3O)nn2)[C@@H](O)[C@H]1O (stereo partly shown) [compound 73, 1-(5′-Deoxy-8-phenyladenosine)-4-(2″,3″-O-isopropylidene-5″-O-methylribosyl)-1,2,3-triazole]
- Effect on activation of TRPM2 by ADPR (1), in words (human TRPM2; [2]): none of these compounds showed antagonist activity

- IC50 (human TRPM2; [4]): > 900 µM
Compound: CCCCNc1c(NC[C@H]2O[C@@H](n3cnc4c(N)ncnc43)[C@H](O)[C@@H]2O)c(=O)c1=O [compound 66, 3-(5′-Amino-5′-deoxyadenosine)-4-butylamino-cyclobut-3-ene-1,2-dione]

- Effect on activation of TRPM2 by ADPR (1), in words (human TRPM2; [3]): some antagonist effect
- IC50 (human TRPM2; [5]): > 900 µM
Compound: Nc1ncnc2c1ncn2[C@@H]1O[C@H](COP(=O)(O)OP(=O)(O)OP(=O)(O)OC[C@H]2OC(O)[C@H](O)[C@@H]2O)[C@@H](O)[C@H]1O (stereo partly shown) [compound 47, Adenosine Triphosphoribose]

- Effect on activation of TRPM2 by ADPR (1), in words (human TRPM2; [2]): significant antagonist activity
Compound: Nc1ncnc2c1nc(-c1ccccc1)n2[C@@H]1O[C@H](COP(=O)(O)OP(=O)(O)OC2CCCC2)[C@@H](O)[C@H]1O [compound 84]

- Effect on activation of TRPM2 by ADPR (1), in words (human TRPM2; [3]): partial inhibition
Compound: Nc1ncnc2c1ncn2[C@@H]1O[C@H](COP(=O)(O)OP(=O)(O)OC2CCCC2)[C@@H](O)[C@H]1O [compound 80, β-Cyclopentyl-ADP]

- Effect on activation of TRPM2 by ADPR (1), in words (human TRPM2; [3]): noticeable antagonist activity
Compound: Nc1ncnc2c1ncn2[C@@H]1O[C@H](COS(=O)(=O)NC(=O)c2ccccc2O)[C@@H](O)[C@H]1O [compound 76, salicyl-adenosine monosulfamide]

- IC50 (human TRPM2; [4]): > 900 µM
Compound: CCCCCCNc1c(NC[C@H]2O[C@@H](n3cnc4c(N)ncnc43)[C@H](O)[C@@H]2O)c(=O)c1=O [compound 67, 3-(5′-Amino-5′-deoxyadenosine)-4-(hexylamino)cyclobut-3-ene-1,2-dione]
